# Source: patent US10279046B2, “Eye drop composition for treating ocular inflammatory disease and preparation method therefor” (CATHOLIC UNIVERSITY INDUSTRY-ACADEMIC COOPERATION FOUNDATION, priority 2013, dated 2019)
# Tested on: corneal damage model (alkali burn)
# Assay: Corneal damage model (alkali burn) with NaOH: corneal edema and inflammatory cells (hematoxylin-eosin and F4/80 staining)
# Type: in vivo, rat (Sprague Dawley)
# Conditions: 0.1 mg/ml (0.01%) sulfasalazine, twice a day
# Experimental: A white […] (Sprague Dawley, 300 g, male) was used as an animal, and a corneal damage model (alkali burn) due to a chemical drug using NaOH was used. A paper disk of 3 mm was dipped in a 0.1 N NaOH solution (50 ul), and the cornea was covered with the paper disk for 30 seconds to induce the cornea to be damaged. The inflammation reaction in the cornea was confirmed by performing hematoxylin eosin staining and immunostaining on the F4/80 antigen. The analysis of corneal edema was performed using a ratio of corneal epithelium and corneal stroma.
# After the damage to the cornea, the solubilized sulfasalazine and the sulfasalazine-hyaluronic acid eye drop prepared in the Example 1 were administered twice a day, respectively. 0.1% hyaluronic acid was administered to the control group.
# Three days after the damage to the cornea, the eyeball was removed and a paraffin block was prepared to make a tissue slice, and the hematoxylineosin staining and the immunostaining on the F4/80 antigen as a macrophage marker were performed.
# The analysis on the inflammatory cells was performed with respect to the number of macrophages (F4/80 positive cells) present in the cornea.
compound,measurement,setting,value
"O=C(O)c1cc(/N=N/c2ccc(S(=O)(=O)Nc3ccccn3)cc2)ccc1O [sulfasalazine solution, sulfasalazine]",number of macrophages (F4/80 positive cells) present in the cornea,after inducement of inflammation 31.5±4.9,21.3±5.5
same,ratio of corneal epithelium and stroma (corneal edema),"three days after damage, normal 4.6±1, after inducement of inflammation 10±2.5",7.1±2.1
